Results: paper PMC2175304 (Nucleic Acids Research, 2007)

Target: Trm6p/Trm61p complex (yeast tRNA m^1A58 Mtase) (Saccharomyces cerevisiae, UniProt P46959)
Assay: biochemical

Trm6p/Trm61p complex (yeast tRNA m^1A58 Mtase), sequence (P46959 whole entry): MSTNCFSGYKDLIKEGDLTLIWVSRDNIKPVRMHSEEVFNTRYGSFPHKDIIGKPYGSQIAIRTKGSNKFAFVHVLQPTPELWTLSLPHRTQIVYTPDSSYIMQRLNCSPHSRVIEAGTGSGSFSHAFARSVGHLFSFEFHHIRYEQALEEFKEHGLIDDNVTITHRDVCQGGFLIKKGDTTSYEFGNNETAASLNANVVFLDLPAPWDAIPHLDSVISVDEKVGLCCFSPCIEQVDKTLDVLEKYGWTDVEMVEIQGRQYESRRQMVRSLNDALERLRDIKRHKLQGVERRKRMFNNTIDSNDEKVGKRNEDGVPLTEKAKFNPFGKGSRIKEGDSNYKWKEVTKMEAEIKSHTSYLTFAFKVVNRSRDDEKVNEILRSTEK
Trm6p/Trm61p complex (yeast tRNA m^1A58 Mtase), sequence (P41814 whole entry partner): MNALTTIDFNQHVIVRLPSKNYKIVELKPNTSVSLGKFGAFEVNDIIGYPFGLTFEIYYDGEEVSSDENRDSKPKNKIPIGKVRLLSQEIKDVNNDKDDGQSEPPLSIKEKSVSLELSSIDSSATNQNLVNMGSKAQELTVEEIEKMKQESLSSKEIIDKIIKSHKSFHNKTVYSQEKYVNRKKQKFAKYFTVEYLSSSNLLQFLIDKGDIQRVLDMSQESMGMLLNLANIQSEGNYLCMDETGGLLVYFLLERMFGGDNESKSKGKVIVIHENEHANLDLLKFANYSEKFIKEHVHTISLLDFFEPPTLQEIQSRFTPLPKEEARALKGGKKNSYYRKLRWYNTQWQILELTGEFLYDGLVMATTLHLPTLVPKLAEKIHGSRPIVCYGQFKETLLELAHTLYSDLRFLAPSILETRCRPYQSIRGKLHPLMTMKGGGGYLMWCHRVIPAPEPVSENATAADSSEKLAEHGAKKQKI

Kd: 376 ± 73 µM
SMILES: C[S+](CC[C@H](N)C(=O)O)C[C@H]1O[C@@H](n2cnc3c(N)ncnc32)[C@H](O)[C@@H]1O (stereo partly shown) [AdoMet]
